ChEMBL document CHEMBL1136713, “Structure-activity relationships of acetylcholinesterase noncovalent inhibitors based on a polyamine backbone. 2. Role of the substituents on the phenyl ring and nitrogen atoms of caproctamine” (J Med Chem, 2003)

Tests used:
Acetylcholinesterase [1] = target: T1, Acetylcholinesterase (Homo sapiens, UniProt P22303)
Description: Inhibitory concentration against acetylcholinesterase from human erythrocytes

Cholinesterase = Cholinesterase (Homo sapiens, UniProt P06276)
Description: Inhibitory concentration against butyrylcholinesterase from human serum

[2] = Apparent dissociation constant of compound was evaluated; format: ADME
Acetylcholinesterase [3] = target: T1, Acetylcholinesterase; remark: listed apart in the source
Description: Inhibitory concentration of compound against acetylcholinesterase from human erythrocytes at pH=7.0

Acetylcholinesterase [4] = target: T1, Acetylcholinesterase; remark: listed apart in the source
Description: Inhibitory concentration of compound against acetylcholinesterase from human erythrocytes at pH=7.5

Acetylcholinesterase [5] = target: T1, Acetylcholinesterase; remark: listed apart in the source
Description: Inhibitory concentration of compound against acetylcholinesterase from human erythrocytes at pH=8.0

[6] = target: T2, Muscarinic acetylcholine receptor M2 (Homo sapiens) (UniProt P08172); experiment: Antagonistic potency of compound towards Muscarinic acetylcholine receptor M2 in guinea pig left atrium; format: functional, tissue-based; settings: Cavia porcellus; Cardiac atrium; target entry is the homologue from another species
T2 sequence (whole entry): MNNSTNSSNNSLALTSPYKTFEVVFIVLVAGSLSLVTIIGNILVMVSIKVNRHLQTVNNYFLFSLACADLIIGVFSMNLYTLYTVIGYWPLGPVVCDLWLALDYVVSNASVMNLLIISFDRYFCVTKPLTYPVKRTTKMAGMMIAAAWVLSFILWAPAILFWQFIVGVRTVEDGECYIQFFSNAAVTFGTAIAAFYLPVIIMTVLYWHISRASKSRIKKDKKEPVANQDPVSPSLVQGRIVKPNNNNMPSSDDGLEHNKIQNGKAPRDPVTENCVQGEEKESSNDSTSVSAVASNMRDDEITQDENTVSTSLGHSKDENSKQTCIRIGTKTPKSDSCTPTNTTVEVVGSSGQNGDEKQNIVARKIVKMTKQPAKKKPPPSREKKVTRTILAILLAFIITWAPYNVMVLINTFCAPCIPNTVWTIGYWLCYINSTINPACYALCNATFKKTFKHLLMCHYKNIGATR

Acetylcholinesterase [7] = target: T1, Acetylcholinesterase; remark: listed apart in the source
Description: Inhibitory activity of compound against acetylcholinesterase from human erythrocytes

Cholinesterase, sequence (P06276 whole entry): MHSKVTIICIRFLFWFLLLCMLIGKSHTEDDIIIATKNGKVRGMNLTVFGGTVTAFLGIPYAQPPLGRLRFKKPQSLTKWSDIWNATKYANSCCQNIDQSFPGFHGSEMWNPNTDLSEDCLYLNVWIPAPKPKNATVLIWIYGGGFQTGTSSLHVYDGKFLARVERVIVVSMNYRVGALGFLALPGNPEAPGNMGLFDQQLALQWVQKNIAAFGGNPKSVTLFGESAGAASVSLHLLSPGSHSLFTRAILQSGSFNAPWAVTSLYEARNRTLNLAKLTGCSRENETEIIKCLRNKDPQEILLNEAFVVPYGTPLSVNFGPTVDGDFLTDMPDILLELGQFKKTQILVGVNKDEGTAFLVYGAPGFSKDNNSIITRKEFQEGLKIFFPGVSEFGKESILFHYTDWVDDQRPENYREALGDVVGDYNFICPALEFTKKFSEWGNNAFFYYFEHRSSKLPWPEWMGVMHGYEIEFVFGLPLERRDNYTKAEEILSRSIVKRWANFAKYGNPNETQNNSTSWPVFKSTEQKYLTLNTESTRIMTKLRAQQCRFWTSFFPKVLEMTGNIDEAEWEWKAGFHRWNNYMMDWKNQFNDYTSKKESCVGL
T1 sequence (P22303 whole entry): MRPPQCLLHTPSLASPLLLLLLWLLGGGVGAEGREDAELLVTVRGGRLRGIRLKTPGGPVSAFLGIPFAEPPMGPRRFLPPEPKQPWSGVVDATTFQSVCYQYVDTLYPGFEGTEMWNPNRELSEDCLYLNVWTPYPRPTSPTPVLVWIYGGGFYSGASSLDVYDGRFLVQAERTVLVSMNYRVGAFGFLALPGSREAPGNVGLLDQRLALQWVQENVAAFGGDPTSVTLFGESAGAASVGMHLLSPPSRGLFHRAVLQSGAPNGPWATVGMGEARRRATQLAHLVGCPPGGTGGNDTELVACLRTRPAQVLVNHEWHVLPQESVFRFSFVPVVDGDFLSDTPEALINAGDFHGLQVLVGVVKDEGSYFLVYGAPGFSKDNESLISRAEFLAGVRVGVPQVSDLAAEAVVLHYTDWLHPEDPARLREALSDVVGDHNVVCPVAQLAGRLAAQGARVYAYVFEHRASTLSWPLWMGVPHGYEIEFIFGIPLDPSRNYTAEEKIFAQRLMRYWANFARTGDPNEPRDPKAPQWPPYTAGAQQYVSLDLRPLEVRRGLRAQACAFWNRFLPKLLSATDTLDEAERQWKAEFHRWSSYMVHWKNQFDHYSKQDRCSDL
Description for Cavia porcellus: Ability to reverse the D-tubocurarine-induced neuromuscular blockade in guinea pig left atrium

SMILES | IC50 (Acetylcholinesterase [1]) [nM] | IC50 (Cholinesterase) [nM] | pKa [2] | pAI50 (Cavia porcellus) | IC50 (Acetylcholinesterase [3]) [nM] | IC50 (Acetylcholinesterase [4]) [nM] | IC50 (Acetylcholinesterase [5]) [nM] | pKb [6] | Ki (Acetylcholinesterase [7]) [nM]
COc1ccc(CN(C)CCCCCC(=O)N(C)CCCCCCCCN(C)C(=O)CCCCCN(C)Cc2ccc(OC)cc2)cc1 | 5750 | 5500 | – | – | – | – | – | – | –
CC[N+](C)(CCCCCC(=O)N(CCCCCCCCN(C(=O)CCCCC[N+](C)(CC)Cc1ccccc1OC)C(C)C)C(C)C)Cc1ccccc1OC (configuration not stated) | 8.13 | 1660 | – | – | – | – | – | – | –
CC[N+](C)(CCCCCCOCCCCCCCCOCCCCCC[N+](C)(CC)Cc1ccccc1OC)Cc1ccccc1OC (configuration not stated) | 77.6 | 759 | – | – | – | – | – | – | –
CCN(CCCCCC(=O)N(C)CCCCCCCCN(C)C(=O)CCCCCN(CC)Cc1ccccc1)Cc1ccccc1 | 49 | 1070 | 7.42 | 6.32 | – | – | – | – | –
CC[N+](C)(CCCCCC(=O)N(C)CCCCCCCCN(C)C(=O)CCCCC[N+](C)(CC)Cc1ccccc1Cl)Cc1ccccc1Cl (configuration not stated) | 19.5 | 2570 | – | – | – | – | – | – | –
CCCOc1ccccc1C[N+](C)(CC)CCCCCC(=O)N(C)CCCCCCCCN(C)C(=O)CCCCC[N+](C)(CC)Cc1ccccc1OCCC (configuration not stated) | 17.4 | 83.2 | – | – | – | – | – | – | –
CCN(CCCCCC(=O)N(C)CCCCCCCCN(C)C(=O)CCCCCN(CC)Cc1ccccc1C)Cc1ccccc1C | 56.2 | 7410 | 7.46 | 6.35 | – | – | – | – | –
COc1ccccc1CN(CCCCCC(=O)N(C)CCCCCCCCN(C)C(=O)CCCCCN(Cc1ccccc1OC)C(C)C)C(C)C | 72.4 | 871 | – | – | – | – | – | – | –
CNC(=O)Oc1ccc2c(c1)[C@]1(C)CCN(C)[C@@H]1N2C [PHYSOSTIGMINE] | – | – | – | 6.5 | – | – | – | – | –
CC[N+](C)(CCCCCC(=O)N(C)CCCCCCCCN(C)C(=O)CCCCC[N+](C)(CC)Cc1ccccc1)Cc1ccccc1 (configuration not stated) | 37.2 | 2510 | – | – | – | – | – | – | –
CC[N+](C)(CCCCCC(=O)N(C)CCCCCCCCN(C)C(=O)CCCCC[N+](C)(CC)Cc1ccccc1OC)Cc1ccccc1OC (configuration not stated) | 12 | 1410 | – | 7.21 | 11 | 11 | 12 | – | –
CC[N+](C)(CCCCCC(=O)N(C)CCCCCCCCN(C)C(=O)CCCCC[N+](C)(CC)Cc1ccccc1C(F)(F)F)Cc1ccccc1C(F)(F)F (configuration not stated) | 11.7 | 7590 | – | – | – | – | – | – | –
CCCOc1ccccc1CN(CC)CCCCCC(=O)N(C)CCCCCCCCN(C)C(=O)CCCCCN(CC)Cc1ccccc1OCCC | 33.9 | 166 | 7.75 | 6.19 | – | – | – | – | –
CCN(CCCCCC(=O)N(C)CCCCCCCCN(C)C(=O)CCCCCN(CC)Cc1ccccc1OC)Cc1ccccc1OC | 18.6 | 2240 | 7.8 | 6.45 | 16.2 | 17.4 | 18.6 | 5.65 | 12.2
CCN(CCCCCCOCCCCCCCCOCCCCCCN(CC)Cc1ccccc1OC)Cc1ccccc1OC | 204 | 2630 | – | – | – | – | – | – | –
CCN(CCCCCC(=O)N(C)CCCCCCCCN(C)C(=O)CCCCCN(CC)Cc1ccccc1C(F)(F)F)Cc1ccccc1C(F)(F)F | 4570 | 166000 | 6.15 | 6.84 | – | – | – | < 5 | –
COc1cccc(CN(C)CCCCCC(=O)N(C)CCCCCCCCN(C)C(=O)CCCCCN(C)Cc2cccc(OC)c2)c1 | 676 | 8320 | – | – | – | – | – | – | –
CCN(CCCCCC(=O)N(CCCCCCCCN(C(=O)CCCCCN(CC)Cc1ccccc1OC)C(C)C)C(C)C)Cc1ccccc1OC | 18.2 | 2140 | – | – | – | – | – | – | –
CCN(CCCCCC(=O)N(C)CCCCCCCCN(C)C(=O)CCCCCN(CC)Cc1ccccc1Cl)Cc1ccccc1Cl | 112 | 4070 | 6.92 | 7.19 | – | – | – | 5.61 | –
CCN(CCCCCC(=O)N(C)CCCCCCCCN(C)C(=O)CCCCCN(CC)Cc1ccccc1[N+](=O)[O-])Cc1ccccc1[N+](=O)[O-] | 794 | 55000 | 6.26 | 5.93 | 32.4 | 79.4 | 794 | – | –
CC[N+](C)(CCCCCC(=O)N(C)CCCCCCCCN(C)C(=O)CCCCC[N+](C)(CC)Cc1ccccc1[N+](=O)[O-])Cc1ccccc1[N+](=O)[O-] (configuration not stated) | 12.3 | 2400 | – | – | 12.6 | 12.9 | 12.3 | – | –
CC[N+](C)(CCCCCC(=O)N(C)CCCCCCCCN(C)C(=O)CCCCC[N+](C)(CC)Cc1ccccc1C)Cc1ccccc1C (configuration not stated) | 16.6 | 6460 | – | – | – | – | – | – | –
COc1ccccc1CN(C)CCCCCC(=O)N(C)CCCCCCCCN(C)C(=O)CCCCCN(C)Cc1ccccc1OC [CAPROCTAMINE] | – | – | – | 5.79 | – | – | – | 6.39 | 104
